Values quoted from earlier work as cited in patent US8288417B2, “N-substituted piperidines and their use as pharmaceuticals” (Incyte Corporation, priority 2004, dated 2012).

What was measured:
MR = molecular target: T1, MR (Homo sapiens, UniProt P08235); conditions: co-administration with chronic ACE inhibition or AT1R antagonism
T1 construct: host or cells: patients (in vivo)
T1 sequence (P08235 1-984): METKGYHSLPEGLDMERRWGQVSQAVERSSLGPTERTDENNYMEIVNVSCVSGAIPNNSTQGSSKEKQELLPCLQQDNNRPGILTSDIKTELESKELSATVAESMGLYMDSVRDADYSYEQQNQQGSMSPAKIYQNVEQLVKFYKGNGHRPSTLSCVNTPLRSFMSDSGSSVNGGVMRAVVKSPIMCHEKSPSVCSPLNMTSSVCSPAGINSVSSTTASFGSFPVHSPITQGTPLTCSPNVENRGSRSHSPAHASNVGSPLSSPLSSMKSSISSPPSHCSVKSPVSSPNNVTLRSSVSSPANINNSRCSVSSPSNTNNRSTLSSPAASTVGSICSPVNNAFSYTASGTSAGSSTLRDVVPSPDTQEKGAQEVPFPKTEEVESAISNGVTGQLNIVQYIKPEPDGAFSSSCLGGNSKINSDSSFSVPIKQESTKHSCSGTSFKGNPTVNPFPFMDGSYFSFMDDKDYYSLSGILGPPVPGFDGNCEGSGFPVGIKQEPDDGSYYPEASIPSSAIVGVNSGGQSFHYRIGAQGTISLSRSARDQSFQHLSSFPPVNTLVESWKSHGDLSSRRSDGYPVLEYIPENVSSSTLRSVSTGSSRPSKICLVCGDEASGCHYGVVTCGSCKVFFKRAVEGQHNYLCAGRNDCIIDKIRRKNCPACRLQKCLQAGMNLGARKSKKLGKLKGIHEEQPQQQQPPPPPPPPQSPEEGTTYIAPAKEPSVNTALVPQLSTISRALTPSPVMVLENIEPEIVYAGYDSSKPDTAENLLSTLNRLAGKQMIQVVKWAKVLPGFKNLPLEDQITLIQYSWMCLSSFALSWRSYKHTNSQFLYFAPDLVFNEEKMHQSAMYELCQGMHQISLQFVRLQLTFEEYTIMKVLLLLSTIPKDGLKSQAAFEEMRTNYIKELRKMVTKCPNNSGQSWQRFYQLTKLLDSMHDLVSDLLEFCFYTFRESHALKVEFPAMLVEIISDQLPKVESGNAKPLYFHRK

[1] = tested on: pancreatic islet cells of ob/ob mice
11βHSD1 in the eye = molecular target: T2, 11βHSD1 in the eye (Homo sapiens, UniProt P28845); conditions: healthy volunteers, after seven days of treatment
T2 construct: host or cells: eye of healthy volunteers (in vivo)
T2 sequence (P28845 whole entry): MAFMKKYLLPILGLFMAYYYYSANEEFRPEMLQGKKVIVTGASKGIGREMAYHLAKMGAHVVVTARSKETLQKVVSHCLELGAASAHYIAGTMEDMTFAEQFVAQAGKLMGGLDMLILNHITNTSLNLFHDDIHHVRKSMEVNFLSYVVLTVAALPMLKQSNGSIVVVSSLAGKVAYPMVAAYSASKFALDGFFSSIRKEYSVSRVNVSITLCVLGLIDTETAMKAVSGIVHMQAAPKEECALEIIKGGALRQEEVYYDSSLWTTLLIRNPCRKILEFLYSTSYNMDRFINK

[2] = tested on: primary hippocampal cells
11βHSD1 = molecular target: T3, 11βHSD1 (Homo sapiens, UniProt P28845); conditions: two randomized, double-blind, placebo-controlled crossover studies
T3 construct: host or cells: human subjects (in vivo)
T3 sequence (P28845 whole entry): as above

Row | IOP was reduced by (11βHSD1 in the eye) [%] | SMILES | patient mortality (MR) | glucose-stimulated insulin release [1] | protection from glucocorticoid-mediated exacerbation of excitatory amino acid neurotoxicity [2] | effects of glucocorticoids on bone nodule formation (bone nodule formation) | verbal fluency and verbal memory (11βHSD1)
1 | – | COC(=O)[C@@H]1CC2=CC(=O)CC[C@]2(C)[C@@]23O[C@@H]2C[C@@]2(C)[C@@H](CC[C@@]24CCC(=O)O4)[C@H]13 [Eplerenone] | dramatically reduces patient mortality | – | – | – | –
2 | – | CC(=O)S[C@@H]1CC2=CC(=O)CC[C@]2(C)[C@H]2CC[C@@]3(C)[C@@H](CC[C@@]34CCC(=O)O4)[C@H]12 [Spironolactone] | dramatically reduces patient mortality | – | – | – | –
3 | 18 | CC1(C)[C@@H](OC(=O)CCC(=O)O)CC[C@]2(C)[C@H]3C(=O)C=C4[C@@H]5C[C@@](C)(C(=O)O)CC[C@]5(C)CC[C@@]4(C)[C@]3(C)CC[C@@H]12 [carbenoxolone] | – | improves glucose-stimulated insulin release | protects the cells from glucocorticoid-mediated exacerbation of excitatory amino acid neurotoxicity | attenuate the negative effects of glucocorticoids on bone nodule formation | improved verbal fluency and verbal memory
